The record followed here is patent US20010025105A1, “Certain substituted 1-aryl-3-piperazine-1'-yl propanones” (Molecular Geriatarics Corporation, priority 1997, published 2001).

The test system of data set [1] is TG3 immunoreactivity in OKA treated MSN1a cells. Put plainly: MSN1a cell culture model, ELISA with TG3 antibody, okadaic acid treated cells. Type of data set: cell-based, human. Particulars: 1 μM OKA, 2 hrs at 37° C., read-out: IC50 for inhibition of TG3 immunoreactivity in OKA treated MSN1a cells. On the procedure:
This assay can thus be used to determine whether a drug is capable of preventing or intervening in AD by attenuating the production of abnormally phosphorylated paired helical filament epitopes associated with AD. To determine whether a drug is capable of preventing or intervening in AD activity, the MSN1a cells containing tau and associated proteins are treated with OKA capable of greatly increasing immunoreactivity of the MSN1a cells with AD specific monoclonal antibodies. Then, either prior to or concomitantly with OKA treatment, a compound of the present invention is added to the culture. If the compound prevents the induction of the AD epitopes in the MSN1a cells treated with OKA, then it is said to have anti-AD activity. If the AD-specific antibodies are highly reactive with the neuroblastoma cells following OKA treatment in the presence of compound, then the compound is said to be ineffectual against AD.
The MSN1a human neuroblastoma line was subcloned from a population of MSN cells obtained from the laboratory of Dr. Peter Davies (Albert Einstein College of Medicine, New York, N.Y.). Cells were grown and maintained in flasks in RPMI 1640 medium, supplemented with 15% fetal calf serum, 100 U/ml penicillin, 100 U/ml Streptomycin, 0.5 ug/ml fungizone under 7.5% CO2 at 37° C.
Stock solutions of drugs were prepared by dissolving the anhydrous powders to final concentrations of either 10 or 20 mM in 50% aqueous or 100% dimethyl sulfoxide (DMSO), respectively. Working solutions of drugs were prepared by dilution of the stock solutions with Kreb's Ringer in Hepes buffer (KRH) (128 mM NaCl, 5 mM KCl, 2.5 mM CaCl2 1.2 mM MgSO4, 1 mM Na2HPO4, 10 mM dextrose, 20 mM Hepes, pH 7.4). OKA is maintained as a 1 mM stock solution in DMSO prior to dilution to 4 μM in KRH.
MSN cells grown in 225 cm^2 flasks are removed from the incubator, their medium decanted and replaced with 50 ml pre-warmed KRH. The cells are harvested by scraping prior to sedimentation at 1000 rpm for 5 min. The supernatants are discarded and the cell pellets are resuspended, the cells counted and diluted to a density of 2×10^4 cells/[…]. The cells are then plated in a 96 well plate at 50 μl/well and 25 μl of 4 μM OKA and 25 μl of drug are then added to the appropriate wells; the entire 96 well plate is then incubated for 2 hrs at 37° C. Depending on the dilution of drug added, this yields individual wells containing 1 μM OKA, 0-64 μM drug and 2×10^4 cells in 0.26% DMSO in KRH. The incubation is terminated by the addition of 20 μl of 6X extraction buffer and immediate freezing at −80° C. for at least one hr. The 6X extraction buffer contains: 25 mM Tris-HCl, pH 7.6, 150 mM NaCl, 5 mM EDTA, 24 mM β-glycerol phosphate, 10 μg/ml APMSF (4-amidinophenylmethane-sulfonyl flouride), and 2.5 μg/ml each of leupeptin, aprotinin, and pepstatin. The plates are thawed in a 37° C. water bath and 20 μl of cell lysate is added to a replica well in an ELISA plate that already contains 80 μl of coating buffer (15 mM Na2CO3 and 35 mM NaHCO3, pH 9.6). The plates are allowed to coat overnight at 4° C. The plates are washed four times with deionized water and then blocked for 30 min at 37° C. with 200 μl/well pre-warmed 1% bovine serum albumin in 10 mM Tris-HCl, pH 7.4, 150 mM NaCl, 3 mM NaN3 (BSA-TBS). After the blocking solution is removed, 100 μl/well of an appropriate dilution of pre-warmed primary antibody (eg., TG3 or PHF-1) in BSA-TBS is added and incubated at 37° C. for 30 min. Incubation is terninated by washing four times in deionized water at which time 100 μl of an appropriate dilution of pre-warmed secondary antibody (conjugated to alkaline phosphatase) in BSA-TBS is added to each well in the ELISA plate. Incubation is performed for 30 min at 37° C. followed by washing 4 times with deionized water. […] of prewarmed chromogenic substrate (1 mg/mnl p-nitrophenyl phosphate in 10% diethanolamine, 3 mM NaN3, 0.5 mM MgCl2, pH 9.8) is added and the plate incubated for 30 min at 37° C. […]
Background: An ELISA detects its analyte on a solid surface through an enzyme-linked reagent.

Where a name gives a salt, the structure may show the parent alone. Read-outs that look alike come from different tables or passages of the source.

On to `Cl.Cl.O=C1c2ccccc2SCC1CN1CCN(Cc2ccccc2)CC1` (stereo not shown), for which the melting point – broadly, the temperature, or range, at which the solid turns liquid – was > 250 °C (dec.).
In the case of “1-(1-Nitrophenyl)-3-[4′-(2″,3″-difluorobenzoyl)-1′-piperazinyl]-1-propanone dihydrochloride [Example 63]”, the IC50 – broadly, the concentration that gives 50% inhibition – in data set [1] amounted to 7.3 µM.
On to “1-(-Methylthiophenyl)-3-(4′-benzyl-1′-piperazinyl)-1-propanonedihydrochloride [Example 14]”, for which the concentration for half-maximal inhibition (IC50) in data set [1] was 5.8 µM.
As to `O=C(CCN1CCN(Cc2ccccc2)CC1)c1ccc(I)cc1` (as salt: hydrochloride) [Example 1, 1-(piodophenyl)-3-(4′-benzyl-1′-piperazinyl)-1-propanonedihydrochloride], the melting point was 224 °C (dec.).
`O=C(CCN1CCN(Cc2ccccc2)CC1)c1cc(C(F)(F)F)cc(C(F)(F)F)c1` (as salt: hydrochloride) [Example 9, 1-[3″,5″-Bis-(trifluoromethyl)phenyl]-3-(4′-benzyl-1′-piperazinyl)-1-propanone dihydrochloride]: the melting point is 255 °C.
In the case of `O=C(CCN1CCN(Cc2ccccc2)CC1)c1cc2ccccc2o1` (as salt: hydrochloride) [Example 10, 1-(Benzofur-2″-yl)-3-(4′-benzyl-1′-piperazinyl)-1-propanone dihydrochloride], the melting point lay in the range of 255 to 257 °C.
On the same count and under the same terms, with `O=C(CCN1CCN(Cc2ccccc2)CC1)c1ccc2c(c1)OCCO2` (as salt: hydrochloride) [Example 19, 1-(2″,3″-Dihydro-1″,4″-benzodioxan-6″-yl)-3-(4′-benzyl-1′-piperazinyl)-1-propanone dihydrochloride] the figure was 215 °C (dec.); with `O=C(CCN1CCN(Cc2ccccc2)CC1)c1ccc2c(c1)CCCC2` (as salt: hydrochloride) [Example 20, 1-(1″,2″,3″,4″-Tetrahydronaphth-6″-yl)-3-(4′-benzyl-1′-piperazinyl)-1-propanone dihydrochloride], 200 °C (dec.).
Regarding `O=C(CCN1CCN(Cc2ccccc2)CC1)c1ccc(-c2ccccc2)cc1` (as salt: hydrochloride) [Example 22, 1-p-Biphenyl-3-(4′-benzyl-1′-piperazinyl)-1-propanone dihydrochloride], the melting point was 225 °C (dec.).
`Cl.Cl.O=C(CCN1CCN(Cc2ccccc2)CC1)c1ccc([N+](=O)[O-])cc1` [Example 5, 1-p-Nitrophenyl)-3-(4′-benzyl-1′-piperaziny)-1-propanone dihydrochloride]: the 50% inhibitory concentration (IC50) in data set [1] amounted to 5 µM.
With `O=C(CCN1CCN(Cc2ccccc2)CC1)c1cccc([N+](=O)[O-])c1` [Example 11, 1-(m-Nitrophenyl)-3-(4′-benzyl-1′-piperazinyl)-1-propanone dihydrochloride], in data set [1], the IC50 is 4.2 µM.
As for `O=C(CCN1CCN(Cc2ccccc2)CC1)c1ccccc1F` [Example 13, 1-(o-Fluorophenyl)-3-(4′-benzyl-1′-piperazinyl)-1-propanone dihydrochloride], the half-inhibitory concentration (IC50) in data set [1] is 11 µM.
On the same count and under the same terms, with `O=C(CCN1CCN(Cc2ccccc2)CC1)c1ccc(Br)cc1` [Example 16, 1-(p-Bromophenyl)-3-(4′-benzyl-1′-piperazinyl)-1-propanone dihydrochloride] the figure was 5.2 µM.
With `O=C(CCN1CCN(Cc2ccccc2)CC1)c1ccc2c(c1)OCCO2` [Example 19, 1-(2″,3″-Dihydro-1″,4″-benzodioxan-6″-yl)-3-(4′-benzyl-1′-piperazinyl)-1-propanone dihydrochloride], the IC50 in data set [1] (Homo sapiens) worked out at 15.6 µM.
As to `CS(=O)(=O)Nc1ccc(C(=O)CCN2CCN(Cc3ccccc3)CC2)cc1` [Example 26, 1-[-p-(Methanesulfonamido)phenyl]-3-(4′-benzyl-1′-piperazinyl)-1-propanone dihydrochloride], the IC50 in data set [1] (Homo sapiens) was 14.7 µM.
With `O=C(CCN1CCN(Cc2ccccc2F)CC1)c1ccc(I)cc1` [Example 29, 1-(p-Iodophenyl)-3-[4′-(o-fluorobenzyl)-1′-piperazinyl]-1-propanone dihydrochloride], the 50% inhibitory concentration (IC50) in data set [1] came to 8.7 µM.
On the same count and under the same terms, the figure for `O=C(CCN1CCN(Cc2ccccc2F)CC1)c1ccc([N+](=O)[O-])cc1` [Example 32, 1-(p-Nitrophenyl)-3-[4′-(o-fluorobenzyl)-1′-piperazinyl]-1-propanone dihydrochloride] is 6.2 µM; for `CS(=O)(=O)Nc1ccc(C(=O)CCN2CCN(Cc3cc(F)ccc3F)CC2)cc1` [Example 36, 1-p-Methanesulfonamidophenyl)-3-(2″,5″-difluorobenzyl-1′-piperazinyl)-1-propanone dihydrochloride] it is 25 µM.
Still for that read-out and setting: with `O=C(CCN1CCN(C(=O)c2ccccc2C(F)(F)F)CC1)c1ccc([N+](=O)[O-])cc1` [Example 39] the figure was 10 µM; with `O=C(CCN1CCN(Cc2cccc(F)c2)CC1)c1ccc([N+](=O)[O-])cc1` [Example 42, 1-(p-Nitrophenyl)-3-[4′-(m-fluorobenzyl)-1′-piperazinyl]-1-propanonedihydrochloride], 5.7 µM; with `O=C(CCN1CCN(Cc2ccc(F)cc2)CC1)c1ccccc1F` [Example 44, 1-(o-Fluorophenyl)-3-[4′-(p-fluorobenzyl)-1′-piperazinyl]-1-propanone dihydrochloride], 7.5 µM.
The same measure, in the same setting: the figure for `O=C(CCN1CCN(Cc2ccc(F)c(F)c2)CC1)c1ccc([N+](=O)[O-])cc1` [Example 55, 1-(p-Nitrophenyl)-3-[4′-(3″,4″-difluorobenzyl)-1′-piperazinyl]-1-propanone dihydrochloride] is 6.3 µM; for `O=C(CCN1CCN(Cc2ccccc2)CC1)c1ccc(Br)s1` [Example 57, 1-(5″-Bromo-2″-thieny)-3-(4′-benzy-1′-piperazinyl)-1-propanone dihydrochloride] it is 6.8 µM.
As for `Cc1ccc(C(=O)CCN2CCN(Cc3ccccc3)CC2)o1` [Example 67, 1-(5″-Methyl-2″-furanyl)-3-(4′-benzyl-1′-piperazinyl)-1-propanone hydrochloride], the IC50 in data set [1] (Homo sapiens) amounted to 20 µM.
The same measure, in the same setting: with `O=C(CCN1CCN(Cc2ccccc2)CC1)c1ccc(Sc2ccccc2)cc1` [Example 69, 1-p-Phenylthiophenyl-3-(4′-benzyl-1′-piperazinyl)-3-propanone dihydrochlonde] the figure was 15 µM.
Turning to `O=C(CCN1CCN(Cc2ccccc2)CC1)c1ccccc1I` [Example 81, 1-o-Iodophenyl-3-(4′-benzyl-1′-piperazinyl)-1-propanone dihydrochloride], the IC50 in data set [1] came to 4.5 µM.
For `O=C(CCN1CCN(Cc2ccccc2)CC1)c1cccn1S(=O)(=O)c1ccccc1` [Example 91, 1-(N-Phenylsulfonylpyrrol-2-yl)-3-(4′-benzyl-1′-piperazinyl)-1-propanone dihydrochloride], the 50% inhibitory concentration (IC50) in data set [1] (Homo sapiens) amounted to 9.5 µM.
For the compound `O=C(CCN1CCC(C(=O)c2ccc(F)cc2)CC1)c1csc([N+](=O)[O-])c1` [Example 98, 1-(2″-Nitro-4″-thienyl)-3-(4′-p-fluorobenzoyl-1′-piperidinyl)-1-propanone hydrochloride], in data set [1] (Homo sapiens), the IC50 stood at 34 µM.
